Data on 11 molecules can be found in patent publication US20200386748A1, “COMPOSITIONS AND METHODS FOR ANALYTE DETECTION USING BIOLUMINESCENCE” (Promega Corporation, priority 2019, published 2020).

One data set relates to rhIL-6. The data set can be described thus: Solution-based IL-6 immunoassay with antibodies directly labeled with reactive peptides. Also noted: species or system human. Conditions: for IL-6 assay result with LgTrip 5146: 1 μM LgTrip 5146 instead of LgTrip 3546; for signal to background: IL-6 titration; for signal to background / signal in the absence of rhIL-6: paired with HW-1053, 1 μM LgTrip 3546; for light output in the presence of high rhIL-6 concentrations: SmTrip9 label on 5IL6 antibody paired with HW-1053-labeled 505E antibody, 1 μM LgTrip 3546. As for the experimental part:
The basic principle of homogeneous NanoLuc tripartite immunoassays with directly-labeled antibodies is depicted in FIG. 78.
SmTrip9 variants such as Pep693 (SEQ ID NO: 20), Pep895 (SEQ ID NO: 24), and Pep929 (SEQ ID NO: 25) or SmTrip10 variants such as Pep691 (SEQ ID NO: 18) and Pep692 (SEQ ID NO: 19) were individually dissolved in DMF to 5 mM. […] Subsequently, these antibodies were combined with 20× molar excess of a reactive peptide for 1 hr at 4° C. while shaking in order to covalently label the proteins. […] SmTrip9 reactive peptides were used to label antibody 5IL6 while SmTrip10 reactive peptides were used to label antibody 505E. The denaturing SDS-PAGE gel shown in FIG. 79 was used to characterize the conjugated antibodies.
FIGS. 80-82 display raw RLU dose response curves for antibody conjugates in the presence of a rhIL-6 titration series. […] After addition of N205, luminescence signal was measured. […] Data in FIG. 81 were generated using 62.5 ng/ml of SmTrip9-labeled (HW-0984) 5IL6 antibody and 60 ng/ml of SmTrip10-labeled (HW-1053) 505E antibody. Data in FIG. 82 were generated using the following concentrations of antibody conjugates: 15 ng/ml HW-1043 (SEQ ID NO: 24)+30 ng/ml HW-1053 (SEQ ID NO: 18), 15 ng/ml HW-1052 (SEQ ID NO: 25)+15 ng/ml HW-1053, (SEQ ID NO: 18) 15 ng/ml HW-1055 (SEQ ID NO: 25)+15 ng/ml HW-1053 (SEQ ID NO: 18), 60 ng/ml HW-1042 (SEQ ID NO: 20)+8 ng/ml HW-1053 (SEQ ID NO: 18), and 60 ng/ml HW-1050 (SEQ ID NO: 27)+8 ng/ml HW-1053 (SEQ ID NO: 18).

A further data set addresses T1, purified NANOLUC enzyme (Oplophorus gracilirostris, UniProt Q9GV45, A31E/A60N/A81I/F95D/I117V/K70R/L54V/L99Q/M102K/N193R/P142E/Q151K/Q38R/Q45L/V71I/Y165I).
T1 construct: purchased Promega
In kind it is biochemical. To be noted: stored in organic solvent at elevated temperature (60° C.).

The target of a further data set is LgTrip 3546. The data set is described as follows: titration of the single labeled antibody with 1 µM LgTrip 3546 and N205, no IL-6 (FIG. 83).
Data set [1] can be described thus: Protein buffer formulations for proteins dried on Whatman 903 paper. Conditions: buffers 2 and 5.
Protocol: For these experiments, Whatman 903 protein saver spot cards were used with the following protein buffer formulations: • Protein buffer 1: 20 mM Na3PO4, 5% w/v BSA, 0.25% v/v tween 20, 10% w/v sucrose • Protein buffer 2: 20 mM Na3PO4, 0.25% v/v tween 20, 10% w/v sucrose • Protein buffer 3: 20 mM Na3PO4, 5% w/v BSA, 0.25% v/v tween 20 • Protein buffer 4: 20 mM Na3PO4, 5% w/v BSA, 0.25% v/v tween 20, 2.5% pullulan • Protein buffer 5: 20 mM Na3PO4, 0.25% v/v tween 20, 2.5% pullulan.
For NanoLuc, a 1000× stock solution was diluted 1:1000 in protein buffer (1 mL). For a 1.068 nM stock solution, 3 μl was diluted into 297 μl of protein buffer. About 5 μL of each concentration was spotted on the filter paper. For LgBiT-1672-11s-His, 5 μL of 1.068 nM protein per spot was used. About 104, was diluted in 990 μL protein buffer for a 2e^−7M stock. About 100 μL of a 100 nM protein solution was then prepared, and about 10 μL stock was diluted into 990 μL protein buffer for 1 nM stock. About 5 μL of each concentration was spotted onto filter paper. For LgTrip 3546, about 5 μL of 1.068 nM protein was used per spot. About 1.1 of LgBiT-1672 stock was diluted into 998.94 μL protein buffer. About 3 μL stock was diluted into 297 μL protein buffer. About 54, of each concentration was spotted onto filter paper. After all protein was added, the samples were dried at 30° C. for about 1 hour. […]

Residues, ends and D or L forms follow the SMILES beside them. No end group written: not given here. *: point of attachment. X1 = O=C(CCOCCOCCOCOCCOCCOCCOCCC(=O)*)ON1C(=O)CC(S(=O)(=O)O)C1=O; X3 = O=C(CCOCCOCCOCCOCCOCCOCCC(=O)*)ON1C(=O)CC(S(=O)(=O)O)C1=O; X2 = O=C(CCOCCOCCOCCC(=O)*)ON1C(=O)CC(S(=O)(=O)O)C1=O Bounds are passed on as bounds.

LgTrip 3546, sequence (chain, as listed by the source): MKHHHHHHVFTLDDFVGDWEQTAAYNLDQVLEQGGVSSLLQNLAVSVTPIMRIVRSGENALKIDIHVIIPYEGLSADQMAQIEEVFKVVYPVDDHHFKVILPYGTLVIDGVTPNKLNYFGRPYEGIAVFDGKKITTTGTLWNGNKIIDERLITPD

Take `CC[C@H](C)[C@H](NC(=O)[C@@H](NC(=O)[C@@H](NC(=O)[C@@H](NC(=O)[C@H](Cc1ccccc1)NC(=O)[C@H](CC(C)C)NC(=O)[C@H](CC(C)C)NC(=O)[C@H](CCCNC(=N)N)NC(=O)CNC(=O)CCOCCOCCOCCOCOCCOCCOCCC(=O)ON1C(=O)CC(S(=O)(=O)O)C1=O)[C@@H](C)O)C(C)C)[C@@H](C)O)C(=O)N[C@@H](CCC(=O)O)C(=O)N[C@@H](CCCNC(=N)N)C(=O)N[C@@H](Cc1ccc(O)cc1)C(=O)N[C@@H](CCCNC(=N)N)C(N)=O` (some centres unmarked) [HW-1043, SulfoSE-PEG6-SmTrip9 Pep895] (X1-GRLLFTVTIERYR-NH2): in the data set on rhIL-6, the “IL-6 assay result with LgTrip 5146” value was “results similar to LgTrip 3546”, the signal to background entry is “best signal to background”, the “light output in the presence of high rhIL-6 concentrations” value was ~10^6 RLUs and the “signal in the absence of rhIL-6” value is reported as “low light output in the absence of the analyte”. `CC[C@H](C)[C@H](NC(=O)[C@@H](NC(=O)[C@@H](NC(=O)[C@H](CCCNC(=N)N)NC(=O)[C@H](Cc1ccccc1)NC(=O)[C@H](CC(C)C)NC(=O)[C@H](CCSC)NC(=O)[C@H](CCCNC(=N)N)NC(=O)[C@H](CCCNC(=N)N)NC(=O)CCOCCOCCOCCOCCOCCOCCC(=O)ON1C(=O)CC(S(=O)(=O)O)C1=O)C(C)C)[C@@H](C)O)C(=O)N[C@@H](CCC(N)=O)C(=O)N[C@@H](CCCNC(=N)N)C(=O)N[C@@H](Cc1c[nH]c2ccccc12)C(=O)N[C@@H](CCCNC(=N)N)C(=O)O` (some centres unmarked) [HW-1052, SulfoSE-PEG6-SmTrip9 Pep929] (X3-RRMLFRVTIQRWR-OH): the “signal in the absence of rhIL-6” value with rhIL-6 is given as “high signal even in the absence of rhIL-6”.

Take `CC[C@H](C)[C@H](NC(=O)[C@@H](NC(=O)[C@@H](NC(=O)[C@H](CCCNC(=N)N)NC(=O)[C@H](Cc1ccccc1)NC(=O)[C@H](CC(C)C)NC(=O)[C@H](CCSC)NC(=O)[C@H](CCCNC(=N)N)NC(=O)[C@H](CCCNC(=N)N)NC(=O)CCOCCOCCOCCC(=O)ON1C(=O)CC(S(=O)(=O)O)C1=O)C(C)C)[C@@H](C)O)C(=O)N[C@@H](CCC(N)=O)C(=O)N[C@@H](CCCNC(=N)N)C(=O)N[C@@H](Cc1c[nH]c2ccccc12)C(=O)N[C@@H](CCCNC(=N)N)C(=O)O` (some centres unmarked) [HW-1055, SulfoSE-PEG3-SmTrip9 Pep929] (X2-RRMLFRVTIQRWR-OH): in the data set with rhIL-6, the “signal in the absence of rhIL-6” value is “high signal even in the absence of rhIL-6”. For `O=c1c(Cc2ccco2)nc2c(Cc3ccccc3)[nH]c(-c3ccccc3)cn1-2` [furimazine, 8-benzyl-2-(furan-2-ylmethyl)-6-phenylimidazo[1,2-a]pyrazin-3(7H)-one], on purified NANOLUC enzyme, the “time to loss of all activity” value is “about 10 days”.

Consider “SulfoSE-PEG3-SmTrip9 Pep938-SA (GRMLFRVTINSWRC; also: SulfoSE-PEG3 label, position not given here) [HW-1050]”, for which, in the data set on rhIL-6, the “IL-6 assay result with LgTrip 5146” value is recorded as “results similar to LgTrip 3546”, the signal to background result is listed as “best signal to background”, the “light output in the presence of high rhIL-6 concentrations” value was ~10^6 RLUs and the “signal in the absence of rhIL-6” value is given as “low light output in the absence of the analyte”.

B1: anti-IL-6 antibody 5IL6 directly labeled with HW-1052 (SulfoSE-PEG6-SmTrip9 Pep929) (antibody, not shown: large carriers; small tags and cut ends)
peptide: RRMLFRVTIQRWR
modifications: not fully specified
In the data set with LgTrip 3546, B1 showed an RLU of 100 RLU.

B2: anti-IL-6 antibody 5IL6 directly labeled with HW-0984 (SulfoSE-PEG3-SmTrip9 Pep693) (antibody, not shown: large carriers; small tags and cut ends)
peptide: GRMLFRVTINSWR
modifications: not fully specified
In the data set with LgTrip 3546, B2 displayed an RLU of more than 1000 RLU.

B3: anti-IL-6 antibody 5IL6 directly labeled with HW-1042 (SulfoSE-PEG6-SmTrip9 Pep693) (antibody, not shown: large carriers; small tags and cut ends)
peptide: GRMLFRVTINSWR
modifications: not fully specified
As for B3, the RLU with LgTrip 3546 came to 100 RLU.

B4: anti-IL-6 antibody 505E directly labeled with HW-0977 (SulfoSE-PEG3-SmTrip10 Pep691) (antibody, not shown: large carriers; small tags and cut ends)
peptide: VSGWRLFRRIS
modifications: also: peptide labeled on anti-IL-6 antibody 505E via SulfoSE-PEG3 linker
B4 had an RLU in the data set with LgTrip 3546 of 100 RLU.

B5: NanoLuc: bioluminescent polypeptide of SEQ ID NO: 5, NanoLuc luciferase (Promega) (protein)
chain: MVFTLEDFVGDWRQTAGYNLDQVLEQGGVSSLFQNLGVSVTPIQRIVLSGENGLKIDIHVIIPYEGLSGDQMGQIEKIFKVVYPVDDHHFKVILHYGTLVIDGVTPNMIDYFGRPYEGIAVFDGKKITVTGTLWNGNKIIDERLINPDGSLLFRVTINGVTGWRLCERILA
For B5, the “change of RLU in protein buffers without BSA” value in data set [1] is recorded as “largest decreases in RLU”.

B6: anti-IL-6 antibody 5IL6 directly labeled with HW-1010 (SulfoSE-PEG3-SmTrip9 Pep895) (antibody, not shown: large carriers; small tags and cut ends)
peptide: GRLLFVVVIERYR
modifications: not fully specified
As to B6, the RLU with LgTrip 3546 stood at 100 RLU.
